From US9247745B2, “Substituted pyridazines for controlling invertebrate pests” (BASF SE, priority 2010, dated 2016)

Legend:
Format in all cases: in vivo
[1] = system: Cowpea aphid (Aphis craccivora); experiment: Cowpea aphid (Aphis craccivora) spray on potted cowpea plants; conditions: assessed after 24, 72, and 120 hours, read-out: mortality in comparison with untreated controls
Procedure: II.3 Cowpea Aphid (Aphis craccivora)
The active compounds were formulated in 50:50 (vol:vol) acetone:water. The test solution was prepared at the day of use.
Potted cowpea plants colonized with 100-150 aphids of various stages were sprayed after the pest population had been recorded. Population reduction was assessed after 24, 72, and 120 hours.

[2] = system: Vetch aphid (Megoura viciae); experiment: Vetch aphid (Megoura viciae) bean leaf disk microtiter plate test; conditions: foliar, 144 h, test solution 2500 mg/L, bean leaf disks, 6 days
Procedure: II.4 Vetch Aphid (Megoura viciae)
The active compounds were formulated in 1:3 (vol:vol) DMSO:water with different concentrations of formulated compounds.
Bean leaf disks were placed into microtiterplates filled with 0.8% agar-agar and 2.5 ppm OPUS™. The leaf disks were sprayed with 2.5 μl of the test solution and 5 to 8 adult aphids were placed into the microtiterplates which were then closed and kept at 23±1° C. and 50±5% relative humidity under fluorescent light for 6 days. Mortality was assessed on the basis of vital, reproduced aphids. Aphid mortality and fecundity was then visually assessed.

[3] = system: Cotton aphid (Aphis gossypii, mixed life stages); experiment: Cotton aphid (Aphis gossypii, mixed life stages) foliar spray on infested cotton plants; conditions: 120 h, after 5 days, read-out: mortality in comparison with untreated controls
Procedure: II.1 Cotton Aphid (Aphis gossypii, Mixed Life Stages)
(§1) The active compounds were formulated in cyclohexanone as a 10,000 ppm solution supplied in 1.3 ml ABgene® tubes. These tubes were inserted into an automated electrostatic sprayer equipped with an atomizing nozzle and they served as stock solutions for which lower dilutions were made in 50% acetone:50% water (v/v). A nonionic surfactant (Kinetic®) was included in the solution at a volume of 0.01% (v/v).
Cotton plants at the cotyledon stage were infested with aphids prior to treatment by placing a heavily infested leaf from the main aphid colony on top of each cotyledon. Aphids were allowed to transfer overnight to accomplish an infestation of 80-100 aphids per plant and the host leaf was removed. The infested plants were then sprayed by an automated electrostatic plant sprayer equipped with an atomizing spray nozzle. The plants were dried in the sprayer fume hood, removed from the sprayer, and then maintained in a growth room under fluorescent lighting in a 24-hr photoperiod at 25° C. and 20-40% relative humidity. Aphid mortality on the treated plants, relative to mortality on untreated control plants, was determined after 5 days.

[4] = system: Silverleaf whitefly (Bemisia argentifolii, adult); experiment: Silverleaf whitefly (Bemisia argentifolii, adult) on sprayed cotton plants; conditions: 72 h, spray on cotton plants, 3 days after treatment, read-out: mortality in comparison with untreated controls
Procedure: II.7 Silverleaf Whitefly (Bemisia argentifolii, Adult)
as §1
Cotton plants at the cotyledon stage (one plant per pot) were sprayed by an automated electrostatic plant sprayer equipped with an atomizing spray nozzle. The plants were dried in the sprayer fume hood and then removed from the sprayer. Each pot was placed into a plastic cup and 10 to 12 whitefly adults (approximately 3-5 days old) were introduced. The insects were collected using an aspirator and 0.6 cm, nontoxic Tygon® tubing (R-3603) connected to a barrier pipette tip. The tip, containing the collected insects, was then gently inserted into the soil containing the treated plant, allowing insects to crawl out of the tip to reach the foliage for feeding. Cups were covered with a reusable screened lid (150-micron mesh polyester screen PeCap from Tetko, Inc.). […] Mortality was assessed 3 days after treatment, compared to untreated control plants.

[5] = system: Green peach aphid (Myzus persicae, mixed life stages); experiment: Green peach aphid (Myzus persicae, mixed life stages) foliar spray on infested bell pepper plants; conditions: 120 h, after 5 days, read-out: mortality in comparison with untreated controls
Procedure: II.2 Green Peach Aphid (Myzus persicae, Mixed Life Stages)
as §1
Bell pepper plants at the first true-leaf stage were infested prior to treatment by placing heavily infested leaves from the main colony on top of the treatment plants. Aphids were allowed to transfer overnight to accomplish an infestation of 30-50 aphids per plant and the host leaves were removed. The infested plants were then sprayed by an automated electrostatic plant sprayer equipped with an atomizing spray nozzle. The plants were dried in the sprayer fume hood, removed, and then maintained in a growth room under fluorescent lighting in a 24-hr photoperiod at 25° C. and 20-40% relative humidity. Aphid mortality on the treated plants, relative to mortality on untreated control plants, was determined after 5 days.

[6] = system: green peach aphid (Myzus persicae); experiment: Green peach aphid (Myzus persicae) systemic test, artificial diet under membrane; conditions: 72 h, 2500 ppm in aphid diet, 3 days, read-out: mortality in comparison with untreated controls
From the text: II.6 Activity Against Green Peach Aphid (Myzus persicae)
For evaluating control of green peach aphid (Myzus persicae) through systemic means the test unit consisted of 96-well-microtiter plates containing liquid artificial diet under an artificial membrane.
The compounds were formulated using a solution containing 75% v/v water and 25% v/v DMSO. Different concentrations of formulated compounds were pipetted into the aphid diet, using a custom built pipetter, at two replications. After application, 5 to 8 adult aphids were placed on the artificial membrane inside the microtiter plate wells. The aphids were then allowed to suck on the treated aphid diet and incubated at about 23+1° C. and about 50+5% relative humidity for 3 days. Aphid mortality and fecundity was then visually assessed.

Cc1c(C(=O)/N=c2\ccn(C)nc2)cnn1CC(F)(F)F [Compound 7, 5-methyl-1-(2,2,2-trifluoro-ethyl)-1H-pyrazole-4-carboxylic acid [1-methyl-1H-pyridazin-(4E)-ylidene]-amide]
mortality at 300 ppm [1]: ≥ 90% | mortality at 2500 µg/mL [2]: ≥ 90% | mortality at 300 ppm [3]: ≥ 75% | mortality at 300 ppm [4]: ≥ 75% | mortality at 300 ppm [5]: ≥ 75% | mortality at 2500 ppm [6]: 100%
